From US9408873B2, “Pharmaceutical composition comprising stem cells treated with NOD2 agonist or culture thereof for prevention and treatment of immune disorders and inflammatory diseases” (KANG STEM BIOTECH CO., LTD., priority 2010, dated 2016)
“Also recorded” adds a separate entry of the source.

Key:
MNC = MNC proliferation in culture medium/supernatant of agonist-treated hUCB-MSC; type: cell-based, human; details: for MNC proliferation in culture medium of agonist-treated hUCB-MSC: hUCB-MSC #618, MNC cultured 3 days
Protocol: Soluble factors are also known to mediate immunosuppression by MSC. So the present inventors examined whether secretory factors generated by UCB-MSCs have an effect on human MNC proliferation. Culture medium (CM) was prepared, and hUCB-MSCs were co-cultured with the agonist for 24 hours. After washing, the cells were cultured fresh for additional […]. Then, a control group containing culture medium (CM) and sample of hUCB-MSCs treated with agonist (#613) were prepared, and MNCs were cultured in CM containing hUCB-MSCs for 3 days.
To determine whether MDP enhances the immunosuppressive activity of in UCB-MSC, the following experiment was performed. A control group containing culture medium (CM) of hUCB-MSC was prepared and the agonist-treated hUCB-MSCs were collected on the 5th day of culturing. Then, MNC was co-cultured in CM of hUCB-MSC for 3 days more, and after culturing, the level of MNC proliferation was monitored.
Additionally, to investigate the correlation among NOD2, Rip2 and MDP in MNC inhibition, the following experiment was conducted using siRNAs of […] and Rip2 and a control group (siCTL). When the cell density reached 60%, siRNAs were transfected into the cells. The siRIPK2 (M-003602-02) which is the siRNA of receptor-interacting serine-threonine kinase 2 (RIPK2 or receptor interacting kinase protein 2 (Rip2) which is the adaptor of […] and NOD2 and the type of kinase called RICK or CARDIAK (Bertin et al, 1999; Inohara et al, 1999; Ogura et al, 2001b)), siNOD2 (J-011338-07) which is the siRNA of NOD2, and a non-targeting control (siControl #1, D-001810-01) were purchased from Dharmacon (Chicago, Ill., USA). DharmaFECT1 (Dharmacon) was used as a transfection reagent, and siRNA was transfected at a concentration of 100 nmol/L. About 48 hours later, the medium was replaced with the fresh one, and the cells were treated with 10 μg/mL of MDP (NOD2 agonist) for 24 hours, except for a negative control (culture medium of MNC only) and a positive control (medium added with UCB-MSC supernatant (UMS) without agonist).
That is, a medium where MNC was cultured alone (i), and a medium added with UCB-MSC supernatant (UMS) without agonist (ii) were prepared as control groups, and a medium treated with MDP and UMS (iii), a medium treated with MDP, UMS, and control siRNA (siCTL) (iv), a medium treated with MDP, UMS and siNOD2 (v), and a medium treated with MDP, UMS, and siRip2 (vi) were prepared. Thereafter, MNC proliferation was measured by optical density at the wavelength of 450 nm.
In order to investigate the role of PGE2 in inhibition of MNC by hUCB-MSC, MNC proliferation was examined when treated with the MSC supernatant, MDP-treated MSC supernatant, and MDP and indomethacin (COX-2 inhibitor)-treated MSC supernatant. The experiment was performed by the same method described in Example 3.

hUCB-MSCs [1] = test: PGE2 secretion by hUCB-MSCs (ELISA); type: cell-based, human
Protocol: The hUCB-MSCs (2×10^4 cells/well) were cultured in MSC medium supplemented with 2% FBS in a 96-well plate. After 24 hrs of culturing, the cells were treated with 1 μg/mL Pam3CSK4 (TLR2 agonist), 1 μg/mL LPS (TLR4 agonist), 10 μg/mL Tri-DAP (NOD1 agonist) or 10 μg/mL MDP (NOD2 agonist) and cultured for additional 24 hours, then the culture supernatant of each sample was collected. After centrifugation, the culture supernatants were filtered through a 0.2 μm filter. Then, PGE2 concentration was measured using an ELISA kit (R&D Systems, Minneapolis, Minn., USA) following the manufacture's protocol.
To determine the sustainment time of the effects of MDP treatment, the amount of PEG2 produced was monitored after 1 day-long treatment of hUCB-MSCs with MDP. In this experiment, MDP was removed after 1 day of culturing by removing the culture medium and washing the cells with phosphate buffered saline (PBS) 5 times. Then the amount of PEG2 produced was measured. Meanwhile, cells were treated with MDP by the same method described in Example 5-1, and PGE2 concentration was measured. Also, in order to determine the effects of NOD2, Rip2 and COX-2 on PGE2 expression, the cells were treated with each of the control group of Example 3-3 i.e. siRNA (siCTL), siNOD2, siRip2 and COX-2 inhibitor called indomethacin (Sigma (St. Louis, Mo., USA).
(§1) Soluble factors such as hepatocyte growth factor, TGF-β1, indoleamine 2,3 dioxygenase-1 (IDO-1), nitric oxide (NO), and prostaglandin E2 (PGE2) are the strong candidates for regulating immunosuppression by MSC. In order to determine whether TLR and NLR agonists induce the production of soluble factors including NO, PGE2 and TGF-β1 in hUCB-MSCs, the cells were cultured with Pam3CSK4, LPS, Tri-DAP, and MDP for 24 hours, and culture supernatants were collected. Secretion of the soluble factors was monitored by the method described in Examples 5-1 and 5-2.

hMNC [2] = test: IL-10 production by MNC cultured with UCB-MSC supernatant and ConA (ELISA); type: cell-based, human
Protocol: In order to determine the production level of IL-10, hUCB-MSCs (1×10^5 cells/well) were cultured in MSC medium supplemented with 2% FBS in a 24 well plate. About 24 hours later, the cells were treated with siNOD2 or indomethacin (Indo), and further cultured for 24 hours. Then the cells were washed five times, and fresh RPMI was added. After 5 days of culturing, UCB-MSC supernatant (UMS) was obtained. MNCs (1×10^6/well) were cultured with UMS and ConA (Sigma (St. Louis Mo., USA)). After 3 days of culturing, cell supernatant was collected, centrifuged, and filtered through a 0.2 μm filter. Then, IL-10 concentration was measured using an ELISA kit (R&D Systems, Minneapolis, Minn., USA).
PGE2 produced in bone marrow stromal cells is known to take an important role in IL-10 production by host macrophages (Nemeth, K., A. et al., Bone marrow stromal cells attenuate sepsis via prostaglandin E(2)-dependent reprogramming of host macrophages to increase their interleukin-10 production. Nat Med 15:42-49, 2009). MDP induces PGE2 production in hUCB-MSCs, and thus the present inventors examined whether IL-10 production in hMNCs is increased in the presence of MDP-UCM. The experiment was performed by the same method described in Example 5-6.

hMNCs = test: Treg population (CD4, CD25, Foxp3) in hMNCs cultured with UCM, flow cytometry; type: cell-based, human
Protocol: Next, the present inventors investigated the effect of UCM on differentiation of hMNC into regulatory T cells (Treg). For this, hMNCs were cultured with UCM for 5 days, and co-expression of CD4, CD25, and Foxp3 in hMNCs was determined by Flow cytometry.

hUCB-MSCs [3] = test: IL-8 production in hUCB-MSCs after stimulation by receptor agonists (ELISA); type: cell-based, human; details: 24 hours with agonist
Protocol: After conforming the expression of the receptors of interest in hUCB-MSC in Example 2-1, the functionality of the receptors investigated by monitoring IL-8 production after stimulation by agonists. For this experiment, hUCB-MSCs were cultured at a density of 2×10^4 cells/well in KSFM medium supplemented with 2% FBS in a 96-well plate. After 24 hours of culturing, the cells were treated with the following agonists corresponding to each of the receptors, i.e., Pam3CSK4 (TLR2 agonist, Pam3), LPS (TLR4 agonist), Tri-DAP (NOD1 agonist, T-DAP), and MDP (NOD2 agonist). Then the samples were incubated for additional 24 hours. The supernatant of each culture was collected, centrifuged, and filtered through a 0.2 μm filter. Then, concentrations of IL-8 and PGE2 were measured using an ELISA kit (R&D Systems, Minneapolis, Minn., USA). Ultrapure LPS (E. coli O111:B4), Pam3CSK4, and Tri-DAP were purchased from Invivogen (San Diego, Calif., USA), MDP [Ac-(6-O-stearoyl)-muramyl-Ala-D-Glu-NH2; muramyl dipeptide] was purchased from Bachem (Bubendorf, Switzerland). Recombinant human Interferon-γ was purchased from Peprotech (Rockyhill, N.J., USA).

human MNC = test: Human MNC proliferation under direct cell to cell contact with hUCB-MSC; type: cell-based; details: direct cell to cell interaction
Excerpt: In the present experiment, the inventors investigated whether TLR and NLR agonists enhance the suppressive activity of hUCB-MSC against human […] proliferation. Based on the study that identified the importance of a direct interact ion between MSCs and lymphocytes in inhibition of lymphocyte proliferation by MSCs, the present inventors investigated whether MDP has an effect on the suppressive ability of hUCB-MSCs against MNC proliferation under the conditions where two cell groups are in contact with each other.

hMNC [4] = test: hMNC proliferation cultured with PGE2; type: cell-based, human; details: PGE2 at a concentration of 10 ng/mL or higher
Protocol: (§2) In order to investigate the effect of PGE2 on mononuclear cell (MNC) proliferation, hMNC and mouse splenocytes were cultured with various concentrations of PGE2. The experiment was performed by the same method described in Example 5-5.

mouse splenocytes [5] = test: Mouse splenocyte proliferation cultured with PGE2; type: cell-based; details: PGE2 at a concentration of 10 ng/mL or higher
Protocol: as §2

mouse splenocytes [6] = test: Xenogeneic mouse splenocyte proliferation in hUCB-MSC culture medium; type: cell-based
COX-2 = COX-2 expression in hUCB-MSCs (immunoblot); type: cell-based, human; details: 24 hours with agonist
Protocol: Cells were treated with 1 μg/mL Pam3CSK4 (TLR2 agonist), 1 μg/mL LPS (TLR4 agonist), 10 μg/mL Tri-DAP (NOD1 agonist) or 10 μg/mL MDP (NOD2 agonist) and cultured for 24 hours. Then, the collected cells were lysed using 1% Nonidet-P40 buffer containing 2 mM dithiothreitol and protease cocktail (Roche, US). The cell lysates were resolved by 12% SDS-PAGE, and transferred onto a nitrocellulose membrane. Then, immunostaining was performed using primary antibodies (COX-2, GAPDH (Santa Cruz biotechnology, Santa Cruz, Calif., USA)). Thereafter, immunostaining was performed using secondary antibodies, and proteins were detected using an enhanced chemiluminescence (ECL) reagent (Intron Biotechnology).
To investigate a correlation between COX-2 expression and the function of NOD2 and Rip2, cells were first treated with MDP and further treated with siNOD2 and siRip2. Then the COX-2 expression level was examined. Protein expression level was measured by using the method described in Example 5-2, and the method for siRNA treatment was the same as described in Example 3-3.

hUCB-MSCs [7] = test: TGF-β1 production by hUCB-MSCs; type: cell-based, human; details: 24 hours with agonist
Protocol: as §1

Question: How did the “effect on the inhibition of MNC proliferation by MDP-treated MSC culture medium (MDP-UCM)” value (MNC; co-treatment or siRNA of hUCB-MSC) turn out when COc1ccc2c(c1)c(CC(=O)O)c(C)n2C(=O)c1ccc(Cl)cc1 [indomethacin] was run?
Answer: MNC proliferation rate similar to that of the negative control group; also recorded: counteracted

Question: What about the “effect on MDP-enhanced PGE2 production” value (hUCB-MSCs [1]; hUCB-MSCs / MDP-UCM) of the same compound?
Answer: MDP-enhanced PGE2 production was inhibited

Question: What about the “effect on MDP-increased IL-10 production by MNC” value (hMNC [2]) of the same compound?
Answer: IL-10 production was suppressed; also recorded: reversed

Question: What about the “effect on the increase in Treg population by MDP-UCM” value (hMNCs) of the same compound?
Answer: reversed

Question: C[C@H](N)C(=O)N[C@H](CCC(=O)NC(CCCC(N)C(=O)O)C(=O)O)C(=O)O (stereo partly shown) [Tri-DAP, Tri-diaminopimelic Acid] was tested. Which IL-8 production (hUCB-MSCs [3]) did it give?
Answer: increased IL-8 production in hUCB-MSCs in a dose-dependent manner

Question: What about the “effect of agonist on suppressive activity of hUCB-MSCs against MNC proliferation” value (“effect of agonist” for short) (human MNC) of the same compound?
Answer: did not affect the suppressive activity of hUCB-MSCs against MNC proliferation

Question: What about the “MNC proliferation in culture medium of agonist-treated hUCB-MSC” value (“MNC proliferation in culture medium” below) (MNC) of the same compound?
Answer: this effect was absent

Question: What about the “MNC proliferation in culture medium” value (MNC; listed as T-DAP) of the same compound?
Answer: only slightly inhibited

Question: CCCCC[C@H](O)/C=C/[C@H]1[C@H](O)CC(=O)[C@@H]1C/C=C\CCCC(=O)O [PGE2, (5Z, 11(alpha),13E,15S)-11,15-dihydroxy-9-oxo-prosta-5,13-dien-1-oic acid] was tested. Which “proliferation of hMNC” value (hMNC [4]) did it give?
Answer: remarkably inhibited

Question: What about the “proliferation of mouse splenocytes” value (mouse splenocytes [5]) of the same compound?
Answer: remarkably inhibited

Question: For Pam3CSK4, which IL-8 production (hUCB-MSCs [3]) is on record?
Answer: increased IL-8 production in hUCB-MSCs in a dose-dependent manner

Question: And the “effect of agonist” value (human MNC)?
Answer: did not affect the suppressive activity of hUCB-MSCs against MNC proliferation

Question: And the “MNC proliferation in culture medium” value (MNC)?
Answer: this effect was absent

Question: What about the “MNC proliferation in culture medium” value (MNC; listed as Pam3) of the same compound?
Answer: only slightly inhibited

Question: How did the IL-8 production (hUCB-MSCs [3]) turn out when CCCCCCCCCCCCCCCCCC(=O)OCC1OC(O)C(NC(C)=O)C(OC(C)C(=O)NC(C)C(=O)NC(CCC(=O)O)C(N)=O)C1O [MDP, Ac-(6-O-stearoyl)-muramyl-Ala-D-Glu-NH2] was run?
Answer: increased IL-8 production in hUCB-MSCs in a dose-dependent manner

Question: And the “effect of agonist” value (human MNC)?
Answer: did not affect the suppressive activity of hUCB-MSCs against MNC proliferation

Question: And the “proliferation of xenogeneic mouse splenocytes in UCM” value (mouse splenocytes [6])?
Answer: this inhibitory effect was enhanced by MDP stimulation

Question: What about the “PGE2 production level after removal of MDP” value (hUCB-MSCs [1]; MDP removed after 1 day, 5th day of culturing) of the same compound?
Answer: greater than that in the control group

Question: And the PGE2 secretion (hUCB-MSCs [1]; hUCB-MSCs, 24 hours with agonist (MDP 10 μg/mL))?
Answer: significantly enhanced PGE2 secretion; also recorded: enhanced only by addition of MDP

Question: What about the COX-2 expression (COX-2) of the same compound?
Answer: enhanced COX-2 expression; also recorded: increased

Question: And the TGF-β1 production (hUCB-MSCs [7])?
Answer: enhanced only by addition of MDP

Question: What about the “IL-10 production by MNC” value (hMNC [2]; MNC cultured 3 days with UCB-MSC supernatant and ConA) of the same compound?
Answer: remarkably increased
